Where two headings read alike, the source gives them in different places. Bounds are passed on as bounds.

The source of these data is patent US10253041B2, “7-phenylethylamino-4H-pyrimido[4,5-d][1,3]oxazin-2-one compounds and their use as mutant IDH1 inhibitors” (Eli Lilly and Company, priority 2015, dated 2019).

The target of one experiment is T1, IDH2 Wild-Type (Homo sapiens, UniProt P48735).
T1 construct: His-tag (N); made in house; host or cells: E. coli
T1 sequence (P48735 40-452): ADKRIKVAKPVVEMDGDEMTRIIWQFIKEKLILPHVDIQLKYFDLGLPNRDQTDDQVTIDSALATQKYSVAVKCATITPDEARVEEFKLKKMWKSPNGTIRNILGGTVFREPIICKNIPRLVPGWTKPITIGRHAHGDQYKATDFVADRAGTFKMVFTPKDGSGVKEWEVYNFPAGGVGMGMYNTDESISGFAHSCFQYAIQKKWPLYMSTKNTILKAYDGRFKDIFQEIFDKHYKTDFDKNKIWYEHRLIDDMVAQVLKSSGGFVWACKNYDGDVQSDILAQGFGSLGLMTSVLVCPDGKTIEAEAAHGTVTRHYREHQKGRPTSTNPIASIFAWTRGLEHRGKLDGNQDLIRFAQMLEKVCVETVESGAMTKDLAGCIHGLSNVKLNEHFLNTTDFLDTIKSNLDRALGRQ
The experiment can be described thus: Biochemical assay for wild-type IDH2 enzyme (αKG by LC-MS). The following applies: mean ± standard deviation of the mean. Here is the method:
IDH1 and IDH2 enzymes catalyze the conversion of isocitrate to αKG. Wild-type IDH1 (National Center for Biotechnology Information, Accession: NP_001269316.1) and IDH2 (National Center for Biotechnology Information, Accession: EAX02082.1) proteins containing N-terminal His-tag are expressed in E. coli and purified using nickel affinity chromatography. The enzyme assays are carried out in V-bottom 96 well polypropylene plates containing 100 mM Tris-HCl buffer at pH 7.5, 1 mM DTT, 0.005% TRITON™ X-100, 120 mM NaCl. For the IDH1 wild-type assay isocitrate, NADP^+ and MnCl2 are included at the concentrations of 85 μM, 50 μuM and 20 μM respectively. For the IDH2 wild-type assay isocitrate, NADP^+ and MnCl2 are included at the concentrations of 30 μM, 50 μM and 10 μM respectively. Inhibitors dissolved in a DMSO stock solution are diluted in the reaction mixture at a final DMSO concentration of 4%. The enzyme assay is terminated (quenched) by adding ACN (50:50) containing d6-2-ketopentanedioic acid (d6-αKG) as an internal standard for mass spectrometry analysis. Ten microliters of reaction mixture is combined with 100 μL of water, 50 μL of 1 M O-benzylhydroxylamine in pyridine buffer (8.6% pyridine, pH 5), and 50 μL of 1 M N-(3-dimethylaminopropyl)-N-ethylcarbodiimide hydrochloride (EDC) in pyridine buffer. Following derivatization at room temperature for one hour, samples are extracted with 600 μL of EtOAc. Four hundred […] of the upper layer is removed, dried under heated nitrogen and reconstituted with 100 μL of MeOH/water (1:1). Ten μL of derivatized sample is injected onto an LC-MS system consisting of a Shimadzu Prominence 20A HPLC system and a The Thermo Quantum Ultra™ triple quadrupole mass spectrometer. Analytes are separated on a Waters XBridge™ C18 column (2.1×50 mm, […]) with a flow rate of 0.6 mL/minute. Mobile phase A is 0.1% formic acid in water and mobile phase B is MeOH. The αKG signal detected is transformed into analyte concentration using a calibration curve generated using known αKG concentrations. […] IC50 values are obtained from the individual % inhibition values at different compound concentrations using a 4-parameter equation. These calculations are carried out using Activity Base (IDBS) or Screener (Genedata) data analysis programs.

In experiment [1] the test system is IDH1 mutant R132C in fibrosarcoma cell line HT1080. The experiment can be described thus: HT1080 cell assay (intracellular 2HG and αKG). In kind it is cell-based. The note with it: Homo sapiens; for IC50: 1 hour + 18 hours incubation. Here is the method:
To test the cellular inhibition of IDH1 mutant R132C, the fibrosarcoma cell line HT1080 (purchased from ATCC) is used. For testing cell-based inhibition of the R132H mutation, the U87MG glioma cell line (ATCC) was stably transfected with a DNA construct expressing the R132H mutant enzyme.
Fifteen thousand cells are plated in poly-D-lys coated 96 well plates (15,000 cells/well) 18-24 hours prior to treatment with compounds. Four hours prior to compound treatment, cells are glutamine-starved by removing normal media and replacing with glutamine-free media. Following starvation, cells are then treated with different concentrations of test compounds (20 μM to 1 nM) dissolved in glutamine free media containing DMSO at a final concentration of 0.2%. The initial compound incubation is for 1 hour at 37° C./5% CO2. After 1 hour, glutamine is added to a final 2 mM concentration and the treated cells are then incubated for a further 18 hours at 37° C./5% CO2. Following the 18 hour incubation, intracellular 2HG and αKG are analyzed in cell lysates. Lysates are prepared following removal of media and addition of buffer containing 25 mM Tris-HCl pH 7.5, 150 mM NaCl, 1 mM EDTA, 1 mM EGTA/1% Triton-X 100 to the cells. An aliquot of lysate is added to a mix of d6-αKG and d5-3HG as internal standards and the mixture is treated with O-benzylhydroxylamine in the presence of N-(3-dimethylaminopropyl)-N′-ethylcarbodiimide hydrochloride (EDC) and pyridine. Analyte derivatives are then extracted with EtOAc, dried, and then reconstituted with 50% MeOH in H2O. Samples prepared as described are injected into the HPLC to separate 2HG and αKG derivatives (and corresponding internal standards) using a reverse phase chromatography in a C18 column. Analysis of the samples is carried out using a 6460 triple quadrupole mass spectrometer (G6460A Agilent). The 2HG and αKG signals detected are transformed into analyte concentration using the ratio of αKG/d6-αKG and the ratio of 2HG/d5-3HG that is extrapolated within a calibration curve. Percent inhibition for each individual sample is obtained after normalizing calculated 2HG or aKG concentration to maximum and minimum references obtained in the presence and in the absence of glutamine during cell treatment with compounds. IC50 values are obtained from individual % inhibition using a sigmoidal dose-response 4-parameter equation. These calculations are carried out automatically using Activity Base (IDBS) or Screener (Genedata) data analysis programs.

The mark [2] stands for this setting: HT-1080, 19 h, intracellular 2HG, read-out: HT1080 (R132C, 2-hydroxyglutarate) IC50.
Where [3] appears, read: HT-1080, intracellular αKG, read-out: HT1080 (R132C, αKG) IC50.

`C=CC(=O)N1CC2(CN(Cc3ccc([C@H](C)Nc4ncc5c(n4)N(CC)C(=O)OC5)cc3)C2)C1` [Example 14, 1-Ethyl-7-[[(1S)-1-[4-[(2-prop-2-enoyl-2,6-diazaspiro[3.3]heptan-6-yl)methyl]phenyl]ethyl]amino]-4H-pyrimido[4,5-d][1,3]oxazin-2-one]: the IC50 at IDH2 Wild-Type is 7 ± 13.3 µM; in experiment [1] (setting [2]), 0.0898 ± 0.0552 µM; in experiment [1] (setting [3]), above 20 µM.
In the case of `C=CC(=O)N1CC2(CN(Cc3ccc([C@H](C)Nc4ncc5c(n4)N(C(C)C)C(=O)OC5)cc3)C2)C1` [Example 15, 1-Isopropyl-7-[[(1S)-1-[4-[(2-prop-2-enoyl-2,6-diazaspiro[3.3]heptan-6-yl)methyl]phenyl]ethyl]amino]-4H-pyrimido[4,5-d][1,3]oxazin-2-one], the values for the IC50 (against IDH2 Wild-Type; in experiment [1] (setting [3])) were 11.2 ± 6.4 µM and above 20 µM, respectively. In addition, the HT1080 (R132C, 2-hydroxyglutarate) IC50 in experiment [1] (HT-1080, 19 h, read-out: HT1080 (R132C, 2-hydroxyglutarate) IC50 (μM), intracellular 2HG, 1 hour + 18 hours incubation) was 0.0278 ± 0.00623 µM.
Regarding `C=CC(=O)N1CCN(Cc2ccc([C@H](C)Nc3ncc4c(n3)N(CC)C(=O)OC4)cc2F)CC1` [Example 16, 1-Ethyl-7-[[(1S)-1-[3-fluoro-4-[(4-prop-2-enoylpiperazin-1-yl)methyl]phenyl]ethyl]amino]-4H-pyrimido[4,5-d][1,3]oxazin-2-one], the IC50 at IDH2 Wild-Type is 22.7 ± 11.8 µM; in experiment [1] (setting [2]), 0.0349 ± 0.0171 µM; in experiment [1] (setting [3]), above 20 µM.
For `C=CC(=O)N1CC(COc2ccc([C@H](C)Nc3ncc4c(n3)N(CC)C(=O)OC4)cc2)C1` [Example 17, 1-Ethyl-7-[[(1S)-1-[4-[(1-prop-2-enoylazetidin-3-yl)methoxy]phenyl]ethyl]amino]-4H-pyrimido[4,5-d][1,3]oxazin-2-one], the IC50 against IDH2 Wild-Type was 0.95 ± 1.29 µM; in experiment [1] (setting [2]) it was 0.099 ± 0.0351 µM; in experiment [1] (setting [3]), above 20 µM.
In the case of `C=CC(=O)N1CCN(Cc2ccc([C@H](C)Nc3ncc4c(n3)N(C)C(=O)OC4)cc2)CC1` [Example 19, 1-Methyl-7-[[(1S)-1-[4-[(4-prop-2-enoylpiperazin-1-yl)methyl]phenyl]ethyl]amino]-4H-pyrimido[4,5-d][1,3]oxazin-2-one], the results for the IC50 (against IDH2 Wild-Type; in experiment [1] (setting [3])) were 28.7 ± 1.5 µM and above 20 µM, respectively.
As to `C=CC(=O)N1CCN(Cc2ccc([C@H](C)Nc3ncc4c(n3)N(CC(F)F)C(=O)OC4)cc2)CC1` [Example 20, 1-(2,2-difluoroethyl)-7-[[(1S)-1-[4-[(4-prop-2-enoylpiperazin-1-yl)methyl]phenyl]ethyl]amino]-4H-pyrimido[4,5-d][1,3]oxazin-2-one], the IC50 is 12.5 ± 0.4 µM at IDH2 Wild-Type, 0.0955 ± 0.0249 µM in experiment [1] (setting [2]) and above 20 µM in experiment [1] (setting [3]).
As for `C=CC(=O)N1CCN(Cc2ccc([C@H](C)Nc3ncc4c(n3)N(CCF)C(=O)OC4)cc2)CC1` [Example 21, 1-(2-fluoroethyl)-7-[[(1S)-1-[4-[(4-prop-2-enoylpiperazin-1-yl)methyl]phenyl]ethyl]amino]-4H-pyrimido[4,5-d][1,3]oxazin-2-one], the figures for the IC50 (against IDH2 Wild-Type; in experiment [1] (setting [2]); in experiment [1] (setting [3])) were 31.1 ± 2.1 µM, 0.408 µM and above 20 µM, respectively.
As to `C=CC(=O)N1CC=C(COc2ccc([C@H](C)Nc3ncc4c(n3)N(CC)C(=O)OC4)cc2)C1` [Example 22, 1-ethyl-7-[[(1S)-1-[4-[(1-prop-2-enoyl-2,5-dihydropyrrol-3-yl)methoxy]phenyl]ethyl]amino]-4H-pyrimido[4,5-d][1,3]oxazin-2-one], the IC50 was 2.15 ± 0.13 µM against IDH2 Wild-Type, 0.0431 ± 0.044 µM in experiment [1] (setting [2]) and above 20 µM in experiment [1] (setting [3]).
